Experiments:
bovine oocytes = assay: Calcium oscillations in bovine oocytes (fura-2 AM imaging); format: cell-based; details: oxyhemoglobin injected 30 to 45 minutes before sperm factor, ~200 uM final heme
Method: Bovine oocytes were ordered from Bomed (2433 University Avenue, Madison, Wis. 53705-3835). They collect the oocytes from the ovaries of slaughtered cows and place them immediately in maturation media to be shipped overnight.
Oocytes were matured overnight and used within 24-28 hours of collection. Oocytes were washed briefly three times in TL-HEPES media and then denuded by vortexing for 3 minutes in TL-HEPES containing 0.2% hyaluronidase. Denuded oocytes were subsequently washed in TL-HEPES and loaded with fura-2 AM by incubation at 37° C. for 15 to 30 minutes. Oocytes were attached to imaging dishes (Biopteks) using 50 μg/ml poly-D-lysine and imaged using 350/380 nm excitation and 510 nm emission filters on a Zeiss Axiovert S100 microscope and fluorescence intensity quantified using Metafluor 4.1 (Universal Imaging).
SNAP ([…]), an NO donor was synthesized prior to use by the method of Fehsel et al. (1996) Meth. Enzymol. 269:426-434. NO release was accomplished by bath addition of SNAP. Calcium release could be effectuated by addition of SNAP at varying concentrations (0.5 mM to 5 mM).
Sperm factor was prepared by the method of Wu et al. (Wu et al., 1997) and injected by a Narishige syringe microinjector to ˜2% oocyte volume. […] Calcium levels were monitored as detailed above.

L. pictus eggs [1] = assay: Egg activation after insemination of injected eggs; details: for fertilization envelope elevation / egg activation after insemination: eggs injected with oxyHb 12.5 or 50 μM, or 50 μM BSA, apoHb, cyanometHb, 1:20,000 sperm dilution; for subsequent activation of oxyHb-inhibited eggs: after insemination, ionomycin 2 μM, GTPγS 100 μM final or cGMP 50 μM final injected
Method: (§2) Also, co-injection of SNAP or CaM/nNOS with oxyHb. […] Subsequent activation of oxyHb-inhibited eggs by ionomycin (2 μM) or injection of either GTPγS (100 μM final) or cGMP (50 μM final).
(§3) The necessity of NO (or its equivalents) was assessed by injecting eggs with oxyHb.

L. pictus eggs [2] = assay: Calcium release in eggs at fertilization measured by calcium green-2; details: oxyHb-injected eggs (14 eggs)
Method: as §2, §3

L. pictus eggs [3] = assay: Egg activation by microinjection (fertilization envelope elevation, pronuclear centering)
Method: as §2

NOS = details: gamete homogenates; ornithine 1.5 mM, nitro-L-arginine 100 μM
Method: Absorbance at 585 nm was measured and normalized to total protein. […] This diaphorase activity is indicative of NOS activity. […] NOS activity is shown measured by citrulline conversion.
NADPH-dependent diaphorase activity or histochemical staining was assessed after a 24-h fixation of gametes. For activity measurements, gametes were lysed (sperm) or sonicated (eggs) in PBS with 1% NP-40 and incubated overnight in 1 mM NADPH, 0.5 mM NBT. Immunodepletion of diaphorase activity was done after size separation (>100K molecular weight cut-off (Amicon)). [^3H]arginine to [^3H]citrulline conversion of gamete homogenates was assessed after two cycles of freeze-thaw lysis (sperm) or Dounce homogenization (eggs) (in mM): 50 KCl, 10 NaCl, 1 EDTA, 5 DTT, 20 HEPES with PIC; pH 8. For inhibition experiments, gamete homogenates were treated with 20% (v/v) activated Dowex to remove endogenous arginine. […] NO determination by DAF fluorescence (490/515 nm) was done after incubating gametes in seawater containing 10 μM DAF.

S. purpuratus sperm [4] = assay: NO production after sperm activation, nitrite accumulation; format: cell-based; details: 5 min, 5 mM ionomycin or egg jelly, normalized to per cent acrosome reaction
Source text: (§1) We measure production of NO by gametes by accumulation of nitrite, an auto-oxidation product of NO, or by fluorescence changes in the NO indicator dye, diaminofluorescein (DAF). Qualitatively similar results are seen for exogenous NO production: activation of either male or female gametes results in NO accumulation in the surrounding medium (Table 1). […] Pre-treatment with inhibitors of the acrosome reaction, substantially prevents NO generation, but is triggered after subsequent addition of ionomycin (Table 2). Similarly, eggs activated by ionomycin treatment generate NO, although at lower levels than sperm (Table 1).

S. purpuratus sperm [5] = assay: NO production after sperm activation, DAF fluorescence; format: cell-based; details: 5 min, 5 mM ionomycin or egg jelly
Source text: as §1

S. purpuratus eggs [6] = assay: NO production after egg activation, nitrite accumulation; format: cell-based; details: 1 mM ionomycin, 5 min
Source text: as §1

S. purpuratus eggs [7] = assay: NO production after egg activation, DAF fluorescence; format: cell-based; details: 1 mM ionomycin, 5 min
Source text: as §1

Molecule: oxyHb: oxyhemoglobin, a physiological scavenger of NO
- effect on sperm factor induced calcium oscillations (bovine oocytes): inhibition
- fertilization envelope elevation / egg activation after insemination (L. pictus eggs [1]): dose-dependently inhibited
- pronuclear centering and first cell division (L. pictus eggs [1]; oxyHb-injected eggs after insemination): 0 out of 15
- peak Ca2+ post-fertilization (L. pictus eggs [2]; control 1.4±0.2 μM): 540 ± 95 nM
- resting Ca2+ (L. pictus eggs [2]; control 240±30 nM): 280 ± 65 nM
- egg activation by SNAP or CaM/nNOS when co-injected with oxyHb (L. pictus eggs [3]; co-injection): does not occur

Molecule: N=C(NCCC[C@H](N)C(=O)O)N[N+](=O)[O-] [NG-nitro-L-arginine]
- effect on citrulline conversion activity (NOS): greatly suppresses

Molecule: [N]=O [NO, nitric oxide]
- egg activation by bath application (L. pictus eggs [3]; bath application, not injected): ineffective

Molecule: bovine serum albumin: a nitrosylable protein
- fertilization envelope elevation / egg activation after insemination (L. pictus eggs [1]): not significantly affected

Molecule: recombinant nNOS with calmodulin (CaM): recombinant CaM-nNOS complexes formed by mixing CaM with nNOS
- pronuclear centering (eggs exhibiting a full fertilization envelope) (L. pictus eggs [3]; injected eggs): 13 out of 13

Molecule: Nc1nc2c(ncn2[C@@H]2O[C@@H]3COP(=O)(O)O[C@H]3[C@H]2O)c(=O)[nH]1 [cGMP]
- subsequent activation of oxyHb-inhibited eggs (L. pictus eggs [1]): elevate fertilization envelopes

Molecule: C[C@H](CCC(=O)O)C[C@H](C)C[C@H](C)C(=O)/C=C(\O)[C@H](C)C[C@H](C)C/C=C/[C@@H](C)[C@@H](O)[C@@H](C)[C@@H](O)C[C@@H]1CC[C@@](C)([C@H]2CC[C@@](C)([C@@H](C)O)O2)O1 [ionomycin]
- Nitrite (S. purpuratus sperm [4]; Sperm (1 μl)): 75 ± 30 pmol
- Nitrite (S. purpuratus sperm [4]; Sperm (5 ml)): 153 ± 15 pmol
- Nitrite (S. purpuratus sperm [4]; Sperm (10 ml)): 283 ± 15 pmol
- DAF Fluorescence (S. purpuratus sperm [5]; Sperm (1 μl)): 103 ± 13 arbitrary units
- DAF Fluorescence (S. purpuratus sperm [5]; Sperm (5 ml)): 543 ± 35 arbitrary units
- DAF Fluorescence (S. purpuratus sperm [5]; Sperm (10 ml)): 910 ± 93 arbitrary units
- Nitrite (S. purpuratus eggs [6]; Eggs (1%, v/v)): 64 ± 4 pmol
- Nitrite (S. purpuratus eggs [6]; Eggs (2%, v/v)): 82 ± 9 pmol
- Nitrite (S. purpuratus eggs [6]; Eggs (5%, v/v)): 141 ± 10 pmol
- DAF Fluorescence (S. purpuratus eggs [7]; Eggs (1%, v/v)): 56 ± 10 arbitrary units
- DAF Fluorescence (S. purpuratus eggs [7]; Eggs (2%, v/v)): 76 ± 8 arbitrary units
- DAF Fluorescence (S. purpuratus eggs [7]; Eggs (5%, v/v)): 112 ± 6 arbitrary units
- subsequent activation of oxyHb-inhibited eggs (L. pictus eggs [1]): elevate fertilization envelopes

Molecule: Nc1nc2c(ncn2[C@@H]2O[C@H](COP(=O)(O)OP(=O)(O)OP(O)(O)=S)[C@@H](O)[C@H]2O)c(=O)[nH]1 [GTPS]
- subsequent activation of oxyHb-inhibited eggs (L. pictus eggs [1]): elevate fertilization envelopes

B1: nNOS: recombinant neuronal nitric oxide synthase from Stratagene (protein, UniProt P29475 1-1434, looked up)
Nitric oxide synthase 1: MEDHMFGVQQIQPNVISVRLFKRKVGGLGFLVKERVSKPPVIISDLIRGGAAEQSGLIQAGDIILAVNGRPLVDLSYDSALEVLRGIASETHVVLILRGPEGFTTHLETTFTGDGTPKTIRVTQPLGPPTKAVDLSHQPPAGKEQPLAVDGASGPGNGPQHAYDDGQEAGSLPHANGLAPRPPGQDPAKKATRVSLQGRGENNELLKEIEPVLSLLTSGSRGVKGGAPAKAEMKDMGIQVDRDLDGKSHKPLPLGVENDRVFNDLWGKGNVPVVLNNPYSEKEQPPTSGKQSPTKNGSPSKCPRFLKVKNWETEVVLTDTLHLKSTLETGCTEYICMGSIMHPSQHARRPEDVRTKGQLFPLAKEFIDQYYSSIKRFGSKAHMERLEEVNKEIDTTSTYQLKDTELIYGAKHAWRNASRCVGRIQWSKLQVFDARDCTTAHGMFNYICNHVKYATNKGNLRSAITIFPQRTDGKHDFRVWNSQLIRYAGYKQPDGSTLGDPANVQFTEICIQQGWKPPRGRFDVLPLLLQANGNDPELFQIPPELVLEVPIRHPKFEWFKDLGLKWYGLPAVSNMLLEIGGLEFSACPFSGWYMGTEIGVRDYCDNSRYNILEEVAKKMNLDMRKTSSLWKDQALVEINIAVLYSFQSDKVTIVDHHSATESFIKHMENEYRCRGGCPADWVWIVPPMSGSITPVFHQEMLNYRLTPSFEYQPDPWNTHVWKGTNGTPTKRRAIGFKKLAEAVKFSAKLMGQAMAKRVKATILYATETGKSQAYAKTLCEIFKHAFDAKVMSMEEYDIVHLEHETLVLVVTSTFGNGDPPENGEKFGCALMEMRHPNSVQEERKSYKVRFNSVSSYSDSQKSSGDGPDLRDNFESAGPLANVRFSVFGLGSRAYPHFCAFGHAVDTLLEELGGERILKMREGDELCGQEEAFRTWAKKVFKAACDVFCVGDDVNIEKANNSLISNDRSWKRNKFRLTFVAEAPELTQGLSNVHKKRVSAARLLSRQNLQSPKSSRSTIFVRLHTNGSQELQYQPGDHLGVFPGNHEDLVNALIERLEDAPPVNQMVKVELLEERNTALGVISNWTDELRLPPCTIFQAFKYYLDITTPPTPLQLQQFASLATSEKEKQRLLVLSKGLQEYEEWKWGKNPTIVEVLEEFPSIQMPATLLLTQLSLLQPRYYSISSSPDMYPDEVHLTVAIVSYRTRDGEGPIHHGVCSSWLNRIQADELVPCFVRGAPSFHLPRNPQVPCILVGPGTGIAPFRSFWQQRQFDIQHKGMNPCPMVLVFGCRQSKIDHIYREETLQAKNKGVFRELYTAYSREPDKPKKYVQDILQEQLAESVYRALKEQGGHIYVCGDVTMAADVLKAIQRIMTQQGKLSAEDAGVFISRMRDDNRYHEDIFGVTLRTYEVTNRLRSESIAFIEESKKDTDEVFSS
- injected amount yielding activation (L. pictus eggs [3]; recombinant nNOS, with CaM): ~0.0075 pg
